This is an account of results in patent US12441768B2, “Compositions and methods for treating endometriosis” (EndoMet Biosciences, Inc., priority 2018, dated 2025).

Where a SMILES comes first, the peptide text is derived from it. [ ]: non-standard residue; d: D form. The star is where a group is joined. ξ: configuration not given here. ξIle = CC[C@H](C)C(N)C(=O)O; Piv = CC(C)(C)C(=O)*

One series in a line: in vitro. The settings on record: % Viability non-Wnt responsive cells.
For a further series, the target named is T1, β-catenin (Homo sapiens, UniProt P35222).
T1 sequence (P35222 1-781): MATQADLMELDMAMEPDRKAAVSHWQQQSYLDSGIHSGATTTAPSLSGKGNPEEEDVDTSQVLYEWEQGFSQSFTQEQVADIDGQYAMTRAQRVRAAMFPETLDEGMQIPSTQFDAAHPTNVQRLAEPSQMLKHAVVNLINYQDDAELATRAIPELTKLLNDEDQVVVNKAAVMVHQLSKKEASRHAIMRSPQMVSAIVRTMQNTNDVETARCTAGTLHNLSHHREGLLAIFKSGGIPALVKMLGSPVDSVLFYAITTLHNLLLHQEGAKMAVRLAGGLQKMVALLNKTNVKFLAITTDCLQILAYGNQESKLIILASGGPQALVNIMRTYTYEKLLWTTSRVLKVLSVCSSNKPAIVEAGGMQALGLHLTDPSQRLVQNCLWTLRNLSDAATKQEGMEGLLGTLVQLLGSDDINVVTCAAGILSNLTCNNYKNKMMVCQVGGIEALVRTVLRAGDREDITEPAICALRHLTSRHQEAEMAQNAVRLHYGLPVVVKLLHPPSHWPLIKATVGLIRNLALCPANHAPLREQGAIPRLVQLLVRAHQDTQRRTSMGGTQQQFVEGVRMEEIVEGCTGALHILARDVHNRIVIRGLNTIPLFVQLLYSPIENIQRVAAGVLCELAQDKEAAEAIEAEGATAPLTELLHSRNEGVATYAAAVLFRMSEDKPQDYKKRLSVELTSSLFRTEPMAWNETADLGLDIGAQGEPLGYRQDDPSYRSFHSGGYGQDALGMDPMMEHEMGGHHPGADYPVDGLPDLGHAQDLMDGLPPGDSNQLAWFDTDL
The experiment in a line: KD50 measurement using competitive fluorescence polarization (FP) with labelled TCF4. The series is classed as binding. The settings on record: fluorescence polarization, β-catenin; for Kd: read-out: β-Cat FP KD. The essentials:
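Polarization readout (470 nm excitation, 520 nm emission) tracks loss of labelled TCF4 binding to β-catenin as test compound competes. Conditions were 5 nM tracer, 100 nM β-catenin, room temperature, compound serially diluted from 10 nM to 30 uM; run in triplicate experiments.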
For orientation: In fluorescence polarisation assays a small probe gives low polarisation when free and higher when bound to something large.

The target in series [1] is Wnt-responsive promoter (TCF/LEF). The series is described as follows: Wnt-dependent luciferase reporter assay. It is filed as cell-based, murine. The essentials:
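Murine 3T3 fibroblasts carrying a TCF/LEF-driven luciferase reporter, stimulated with Wnt3a in the presence of increasing peptide concentrations or vehicle. Luminescence inhibition gave EC50 values in uM.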

Consider `CC[C@H](C)[C@H](NC(=O)[C@H](CC(C)C)NC(=O)[C@H](Cc1ccccc1)NC(=O)[C@H](Cc1c[nH]c2ccccc12)NC(=O)[C@@H](N)CCSC)C(=O)N[C@@H](CO)C(=O)N[C@@H](Cc1ccccc1)C(=O)N[C@@H](Cc1c[nH]c2ccccc12)C(=O)NCC(=O)O` [compound 17] (H-MWFLISFWG-OH), for which the viability – broadly, a read-out of living cells in per cent, often relative to untreated cells – in the series “in vitro” amounted to 98%. In addition, on β-catenin, the “β-Cat FP Hill slope” value is given as 1.66 and the Kd (in general, the free concentration of one partner at which half of the binding sites on the other are occupied at equilibrium, for simple one-to-one binding) is 0.4 to 1 µM. For the same compound, the EC50 (as a rule, the concentration needed to bring the measured effect to its halfway point) in series [1] is less than 7.5 µM.

On to `CC[C@H](C)[C@H](NC(=O)[C@H](CO)NC(=O)[C@H](CCC(=O)O)NC(=O)[C@H](Cc1c[nH]c2ccccc12)NC(=O)[C@@H](N)CCSC)C(=O)N[C@@H](CC(C)C)C(=O)N[C@@H](CC(=O)O)C(=O)N[C@@H](CCC(=O)O)C(=O)N[C@@H](Cc1c[nH]cn1)C(=O)N[C@@H](CCSC)C(=O)N[C@@H](CCC(N)=O)C(=O)N[C@@H](CCCNC(=N)N)C(=O)N[C@H](C(=O)N[C@@H](Cc1c[nH]c2ccccc12)C(=O)N[C@@H](CCCNC(=N)N)C(=O)NCC(=O)O)C(C)C` [compound 23] (H-MWESILDEHMQRVWRG-OH), for which the viability in “in vitro” came out at 98.9%. Moreover, on β-catenin, the “β-Cat FP Hill slope” value is recorded as 0.71 and the Kd was less than 0.4 µM. In series [1], this compound had an EC50 of more than 30 µM.

Consider `CC[C@H](C)[C@H](NC(=O)[C@H](CC(C)C)NC(=O)[C@H](Cc1ccccc1)NC(=O)[C@H](Cc1c[nH]c2ccccc12)NC(=O)[C@H](CCSC)NC(=O)[C@H](CCCNC(=N)N)NC(=O)[C@H](CO)NC(=O)[C@@H](N)CCSC)C(=O)N[C@@H](CO)C(=O)N[C@@H](Cc1ccccc1)C(=O)N[C@@H](Cc1c[nH]c2ccccc12)C(=O)N[C@@H](CCSC)C(=O)NCC(=O)O` [compound 14] (H-MSRMWFLISFWMG-OH), for which the viability in “in vitro” is 98%. Further, at β-catenin, the Kd was more than 30 µM. Moreover, the 50% effective concentration (EC50) in series [1] is less than 7.5 µM.

For the compound `CC[C@H](C)[C@@H]1NC(=O)[C@H](CO)NC(=O)[C@H](CCC(=O)O)NC(=O)[C@H](C)N(C)C(=O)[C@@H](N)CCCCNC(=O)CNC(=O)[C@H](Cc2c[nH]c3ccccc23)NC(=O)[C@H](C(C)C)NC(=O)[C@H](CCCNC(=N)N)NC(=O)[C@H](CCC(N)=O)NC(=O)[C@H](C(C)C)NC(=O)[C@H](Cc2c[nH]cn2)NC(=O)[C@H](CCC(=O)O)NC(=O)[C@H](CC(=O)O)NC(=O)[C@H](CC(C)C)NC1=O` [compound 18] (HELM PEPTIDE1{K.[meA].E.S.I.L.D.E.H.V.Q.R.V.W.G}$PEPTIDE1,PEPTIDE1,1:R3-15:R2$$$V2.0; bridges inferred), the viability in “in vitro” came out at 90.2%. Further, the Kd on β-catenin is more than 30 µM. Moreover, the EC50 in series [1] is more than 30 µM.

For `CC[C@H](C)[C@H](NC(=O)[C@H](CC(C)C)NC(=O)[C@H](Cc1ccccc1)NC(=O)[C@H](Cc1c[nH]c2ccccc12)NC(=O)[C@@H](N)CCSC)C(=O)N[C@@H](CS)C(=O)N[C@@H](Cc1ccccn1)C(=O)N[C@@H](Cc1c[nH]c2ccccc12)C(=O)NCC(=O)O` [compound 148] (HELM PEPTIDE1{M.W.F.L.I.C.[O=C([C@H](Cc1ccccn1)N[*:1])[*:2]].W.G}$$$$V2.0), the viability in the series “in vitro” turned out to be 95.5%. On β-catenin, the “β-Cat FP Hill slope” value is listed as 0.7 and the Kd is 0.4 to 1 µM. Besides, in series [1], the EC50 was 7.5 to 15 µM.

Regarding `CC[C@H](C)[C@H](NC(=O)[C@H](CC(C)C)NC(=O)[C@H](Cc1ccccc1)NC(=O)[C@H](Cc1c[nH]c2ccccc12)NC(=O)[C@H](CCSC)NC(=O)[C@H](CCCNC(=N)N)NC(=O)[C@H](CO)NC(=O)[C@@H](N)CCSC)C(=O)N[C@@H](CO)C(=O)N[C@@H](Cc1ccccc1)C(=O)N[C@@H](Cc1c[nH]c2ccccc12)C(=O)N(C)[C@@H](C)C(=O)NCC(=O)O` [compound 16] (HELM PEPTIDE1{M.S.R.M.W.F.L.I.S.F.W.[meA].G}$$$$V2.0), the viability in “in vitro” came out at 92%. In addition, the Kd on β-catenin is more than 30 µM. Further, the EC50 in series [1] was 15 to 22.5 µM.

Regarding `CC[C@H](C)C(NC(=O)[C@H](CC(C)C)NC(=O)C(NC(=O)[C@H](Cc1c[nH]c2ccccc12)NC(=O)[C@H](CCSC)NC(=O)C(C)(C)C)[C@@H](C)CC)C(=O)N[C@@H](CO)C(=O)N[C@@H](Cc1ccccc1)C(=O)N[C@@H](Cc1c[nH]c2ccccc12)C(=O)NCC(=O)O` (stereo partly shown) [compound 224] (Piv-MW[ξIle]L[ξIle]SFWG-OH), the viability in “in vitro” was 95.7%. Further, on β-catenin, the “β-Cat FP Hill slope” value turned out to be 1.04 and the Kd is less than 0.4 µM. For the same compound, in series [1], the EC50 was less than 7.5 µM.

Consider `CC[C@H](C)[C@@H]1NC(=O)[C@H](CO)NC(=O)[C@H](CCC(N)=O)NC(=O)[C@H](C)N(C)C(=O)[C@@H](N)CCCCNC(=O)CNC(=O)[C@H](Cc2c[nH]c3ccccc23)NC(=O)[C@H](C(C)C)NC(=O)[C@H](CCCNC(=N)N)NC(=O)[C@H](CCC(N)=O)NC(=O)[C@H](C(C)C)NC(=O)[C@H](Cc2c[nH]cn2)NC(=O)[C@H](CCC(=O)O)NC(=O)[C@H](CC(=O)O)NC(=O)[C@H](CC(C)C)NC1=O` [compound 19] (HELM PEPTIDE1{K.[meA].Q.S.I.L.D.E.H.V.Q.R.V.W.G}$PEPTIDE1,PEPTIDE1,1:R3-15:R2$$$V2.0; bridges inferred), for which the viability in “in vitro” was 104%. For the same compound, the Kd at β-catenin is more than 30 µM. The EC50 in series [1] is more than 30 µM.

`CC[C@H](C)[C@@H]1NC(=O)[C@H](CO)NC(=O)[C@H](CCC(N)=O)NC(=O)[C@H](C)N(C)C(=O)[C@H](Cc2c[nH]c3ccccc23)NC(=O)[C@@H](N)CCCCNC(=O)CNC(=O)[C@H](Cc2c[nH]c3ccccc23)NC(=O)[C@H](C(C)C)NC(=O)[C@H](CCCNC(=N)N)NC(=O)[C@H](CCC(N)=O)NC(=O)[C@H](C(C)C)NC(=O)[C@H](Cc2c[nH]cn2)NC(=O)[C@H](CCC(N)=O)NC(=O)[C@H](CC(N)=O)NC(=O)[C@H](CC(C)C)NC1=O` [compound 20] (HELM PEPTIDE1{K.W.[meA].Q.S.I.L.N.Q.H.V.Q.R.V.W.G}$PEPTIDE1,PEPTIDE1,1:R3-16:R2$$$V2.0; bridges inferred): the viability in “in vitro” is 106%. In addition, the Kd on β-catenin is more than 30 µM. The EC50 in series [1] was more than 30 µM.

Turning to `CC[C@H](C)[C@@H]1NC(=O)[C@H](CO)NC(=O)[C@H](CCC(=O)O)NC(=O)[C@H](C)N(C)C(=O)[C@H](CCSC)NC(=O)[C@@H](N)CCCCNC(=O)CNC(=O)[C@H](Cc2c[nH]c3ccccc23)NC(=O)[C@H](C(C)C)NC(=O)[C@H](CCCNC(=N)N)NC(=O)[C@H](CCC(N)=O)NC(=O)[C@H](C(C)C)NC(=O)[C@H](Cc2c[nH]cn2)NC(=O)[C@H](CCC(=O)O)NC(=O)[C@H](CC(=O)O)NC(=O)[C@H](CC(C)C)NC1=O` [compound 30] (HELM PEPTIDE1{K.M.[meA].E.S.I.L.D.E.H.V.Q.R.V.W.G}$PEPTIDE1,PEPTIDE1,1:R3-16:R2$$$V2.0; bridges inferred), the viability in the series “in vitro” came to 106%. On β-catenin, the “β-Cat FP Hill slope” value is given as 0.7 and the Kd is 1 to 10 µM. The compound also registered an EC50 in series [1] of more than 30 µM.

As to `CC[C@H](C)[C@H]1NC(=O)[C@H](CC(C)C)NC(=O)[C@@H](Cc2ccccc2)NC(=O)[C@H](Cc2c[nH]c3ccccc23)NC(=O)[C@@H](CCSC)NC(=O)CCCCCCCCCCCNC(=O)C[C@@H](C(=O)O)NC(=O)[C@H](Cc2c[nH]c3ccccc23)NC(=O)[C@@H](C)NC(=O)[C@@H](CS)NC1=O` [compound 193] (HELM PEPTIDE1{[O=C(CCCCCCCCCCCN[*:1])[*:2]].[dM].W.[dF].L.[CC[C@H](C)[C@@H](N[*:1])C(=O)[*:2]].[dC].[dA].W.D}$PEPTIDE1,PEPTIDE1,1:R1-10:R3$$$V2.0), in “in vitro”, the viability was 96.6%. On β-catenin, the “β-Cat FP Hill slope” value is given as 2.34 and the Kd is 0.4 to 1 µM. Besides, the EC50 in series [1] was less than 7.5 µM.

For the compound `CC[C@@H](C)[C@H]1NC(=O)[C@@H](CC(C)C)NC(=O)[C@@H](Cc2ccccc2)NC(=O)[C@H](Cc2c[nH]c3ccccc23)NC(=O)[C@@H](CCSC)NC(=O)CCCCCCCCCCCNC(=O)C[C@@H](C(=O)O)NC(=O)[C@H](Cc2c[nH]c3ccccc23)NC(=O)[C@@H](Cc2ccccc2)NC(=O)[C@H](CS)NC1=O` [compound 190] (HELM PEPTIDE1{[O=C(CCCCCCCCCCCN[*:1])[*:2]].[dM].W.[dF].[dL].[dI].C.[dF].W.D}$PEPTIDE1,PEPTIDE1,1:R1-10:R3$$$V2.0), in “in vitro”, the viability came out at 99.6%. For the same compound, on β-catenin, the “β-Cat FP Hill slope” value was 1.92 and the Kd was in the range of 0.4 to 1 µM. Further, the EC50 in series [1] was less than 7.5 µM.
